Test results published in EP4578856A1, “HETEROCYCLIC COMPOUND” (Ubience Inc., priority 2022, dated 2024).
Values belong to the molecule of their own block, whether it stands above or below them.

Columns and labels:
[1] = target: T1, FAK protein (Homo sapiens, UniProt Q05397); assay: FAK kinase inhibitory activity, mobility shift assay (MSA, Carna Biosciences); assay type: biochemical; design: GST (N); purchased Carna Biosciences, Inc; host or cells: baculovirus expression system; details: inhibition rate at 30 nM; reaction time 5 hours
Procedure: The FAK kinase inhibitory activity was measured using a mobility shift assay (MSA) provided by Carna Biosciences, Inc.
The test compound was dissolved in DMSO to prepare a 3 µM solution. The solution was further diluted 25 times with an assay buffer (20 mmol/L HEPES, 0.01%Triton (registered trademark) X-100, 1 mmol/L DTT, pH 7.5) to obtain a test compound solution.
Incomplete human FAK kinase was expressed by fusing 376 to 1052 amino acids of Accession No. NP_722560.1 with GST at the N-terminus using the baculovirus expression system. The GST-FAK was purified by glutathione sepharose chromatography. A 4-fold concentration substrate (Blk/Lyntide, 1000 nmol/L)/ATP (25 µmol/L)/metal solution (Mg, 5 mmol/L) was prepared with kit buffer (20 mmol/L HEPES, 0.01% Triton (registered trademark) X-100, 5 mmol/L DTT, pH 7.5). A 2-fold concentration kinase solution was prepared with assay buffer.
In the same manner as described in Test Example 1, tests and evaluation of inhibitory activity and data analysis were performed. The reaction time was set to 5 hours. […]
Target sequence in this assay (Q05397 376-1052): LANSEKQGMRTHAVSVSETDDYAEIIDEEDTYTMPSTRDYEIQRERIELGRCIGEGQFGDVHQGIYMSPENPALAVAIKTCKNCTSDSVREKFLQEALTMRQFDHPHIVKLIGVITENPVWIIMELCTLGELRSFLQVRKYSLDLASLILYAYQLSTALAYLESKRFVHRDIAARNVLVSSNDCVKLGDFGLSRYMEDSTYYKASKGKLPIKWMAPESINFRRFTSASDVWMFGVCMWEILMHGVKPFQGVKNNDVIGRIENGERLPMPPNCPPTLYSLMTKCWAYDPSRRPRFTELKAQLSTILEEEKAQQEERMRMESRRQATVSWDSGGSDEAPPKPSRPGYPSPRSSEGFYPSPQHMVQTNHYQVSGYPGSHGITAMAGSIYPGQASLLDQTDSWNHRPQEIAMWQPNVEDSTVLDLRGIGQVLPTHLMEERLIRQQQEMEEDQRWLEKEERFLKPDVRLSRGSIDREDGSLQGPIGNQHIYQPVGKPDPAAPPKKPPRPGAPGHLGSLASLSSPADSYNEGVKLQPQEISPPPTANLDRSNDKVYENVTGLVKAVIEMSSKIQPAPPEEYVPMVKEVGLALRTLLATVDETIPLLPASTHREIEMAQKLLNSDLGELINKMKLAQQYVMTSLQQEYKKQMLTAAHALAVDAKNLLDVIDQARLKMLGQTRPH

[2] = target: T1, FAK protein; assay: Degradation inducing activity of FAK protein in PA-1 cells, Western blotting (Simple Western JESS); assay type: cell-based; design: endogenous in cells; host or cells: PA-1 (ATCC CRL-1572); details: at 10 µM, 24 hours
Procedure: In vitro degradation inducing activity of FAK protein of compounds of Examples was evaluated by Western Blotting (WB).
By a test compound, 10 mM DMSO solution was prepared, which was used as a 10 µM test compound solution. Further, the solution was diluted 10-fold with DMSO to prepare a 1 mM solution, which was used as a 1 µM test compound solution.
PA-1 cells (ATCC: CRL-1572, Lot: 70055709) were cultured in Eagle's Minimum Essential Medium supplemented with 10% FBS and 1% Penicillin/Streptomycin. The PA-1 cells seeded in a 24 well plate at 200,000 cells/well/1 mL were cultured for 24 hours, and then 1 µL of DMSO or a test compound solution was added thereto and treatment was performed for 24 hours. Cells were harvested and lysed for 20 minutes on ice using RIPA lysis buffer (Sigma, Cat#R0278) supplemented with protease inhibitor cocktail (Sigma, Cat#P8340; Roche, Cat#P11873580001), and phosphatase inhibitor cocktail (Sigma, Cat#P5726, P0044). The lysate was sonicated (15 seconds, amplitude 30%, 1 cycle) and then centrifuged at 12500 rpm for 15 minutes at 4°C. The protein concentration was determined by BCA assay kit (Thermo Fisher Scientific, Cat#23225).
The western blotting was performed using Simple Western JESS (protein simple). A cell lysis sample (protein amount; about 2 µg) was loaded on a plate of Simple Western JESS, and the expression level of […] was detected using a 12-230 kDa Wes Separation Module (Protein simple, Cat#SM-WO04), an Anti-Rabbit Detection Module for Wes (Protein simple, Cat#DM-001), and a Total Protein Detection Module for Wes (Protein simple, Cat#DM-TP01). As the primary antibody, a material obtained by diluting FAK Rabbit mAb (Cell Signaling Technology, Cat#3285) at 1:100 was used, and as the secondary antibody, a material obtained by diluting HRP-labeled anti-rabbit IgG antibody (Cell Signaling Technology, Cat#7074S) at 1:250 was used. The expression level of the target protein was standardized using the total protein amount loaded as a reference. The standardized expression level data of the control (DMSO) was taken as 100%, and the degradation rate (%) was calculated from the average standardized expression level data of the test compounds (compounds of Examples 109 to 128). All analysis steps, such as data detection and analysis, are fully automated.
Target sequence in this assay (Q05397 whole entry): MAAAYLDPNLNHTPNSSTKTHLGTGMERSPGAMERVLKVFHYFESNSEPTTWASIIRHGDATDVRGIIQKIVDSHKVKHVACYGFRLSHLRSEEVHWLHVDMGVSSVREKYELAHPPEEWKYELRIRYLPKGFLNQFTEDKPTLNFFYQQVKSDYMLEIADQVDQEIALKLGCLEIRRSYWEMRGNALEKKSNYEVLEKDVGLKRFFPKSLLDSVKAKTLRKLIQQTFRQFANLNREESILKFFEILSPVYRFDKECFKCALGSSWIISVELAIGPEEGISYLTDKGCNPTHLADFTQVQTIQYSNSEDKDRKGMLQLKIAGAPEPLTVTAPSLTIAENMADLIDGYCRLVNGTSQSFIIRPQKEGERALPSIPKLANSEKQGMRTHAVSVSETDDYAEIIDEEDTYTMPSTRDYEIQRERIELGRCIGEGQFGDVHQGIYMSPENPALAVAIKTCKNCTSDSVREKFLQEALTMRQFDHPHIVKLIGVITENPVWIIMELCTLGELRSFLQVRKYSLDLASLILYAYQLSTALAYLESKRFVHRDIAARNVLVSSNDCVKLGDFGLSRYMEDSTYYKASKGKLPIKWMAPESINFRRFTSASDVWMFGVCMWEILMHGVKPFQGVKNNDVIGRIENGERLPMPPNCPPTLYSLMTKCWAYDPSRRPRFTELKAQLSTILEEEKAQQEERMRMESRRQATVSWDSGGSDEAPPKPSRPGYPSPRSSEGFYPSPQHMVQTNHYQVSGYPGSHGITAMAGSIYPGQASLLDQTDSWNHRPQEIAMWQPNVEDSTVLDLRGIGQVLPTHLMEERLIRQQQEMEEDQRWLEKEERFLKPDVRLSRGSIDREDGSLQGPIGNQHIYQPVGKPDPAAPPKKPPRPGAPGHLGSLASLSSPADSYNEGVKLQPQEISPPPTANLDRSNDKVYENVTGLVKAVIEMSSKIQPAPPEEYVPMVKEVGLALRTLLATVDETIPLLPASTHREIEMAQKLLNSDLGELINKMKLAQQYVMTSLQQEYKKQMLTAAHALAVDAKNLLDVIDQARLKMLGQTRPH

Compound: COC[C@H]1CN[C@H](C)CN1CC(=O)N1CC(C)(C)c2ncc(Cc3cccc(OCCN4CCN(CCOCCOCCOCCOCC(=O)Nc5ccc(Nc6ncc(C(F)(F)F)c(NCc7cccc(S(C)(=O)=O)c7)n6)cc5)CC4)c3)cc21 [Example 128, 14-(4-(2-(3-((1-(2-((2R,5R)-2-(Methoxymethyl)-5-methylpiperazin-1-yl)acetyl)-3,3-dimethyl-2,3-dihydro-1H-pyrrolo[3,2-b]pyridin-6-yl)methyl)phenoxy)ethyl)piperazin-1-yl)-N-(4-((4-((3-(methylsulfonyl)benzyl)amino)-5-(trifluoromethyl)pyrimidin-2-yl)amino)phenyl)-3,6,9,12-tetraoxatetradecanamide]
inhibition at 0.03 µM [1]: 50 to 75%

Compound: COC[C@H]1CN[C@H](C)CN1CC(=O)N1CC(C)(C)c2ncc(Cc3ccccc3OCCN3CCN(CCOCCOCCOCC(=O)Nc4ccc(Nc5ncc(C(F)(F)F)c(NCc6cccc(S(C)(=O)=O)c6)n5)cc4)CC3)cc21 [Example 122, 2-(2-(2-(2-(4-(2-(2-((1-(2-((2R,5R)-2-(Methoxymethyl)-5-methylpiperazin-1-yl)acetyl)-3,3-dimethyl-2,3-dihydro-1H-pyrrolo[3,2-b]pyridin-6-yl)methyl)phenoxy)ethyl)piperazin-1-yl)ethoxy)ethoxy)ethoxy)-N-(4-((4-((3-(methylsulfonyl)benzyl)amino)-5-(trifluoromethyl)pyrimidin-2-yl)amino)phenyl)acetamide]
inhibition at 0.03 µM [1]: 50 to 75%

Compound: C[C@@H]1CN(CC(=O)N2CC(C)(C)c3ncc(Cc4ccc(F)cc4)cc32)[C@@H](CN(C)CCOCC(=O)Nc2ccc(Nc3ncc(C(F)(F)F)c(NCc4cccc(S(C)(=O)=O)c4)n3)cc2)CN1 [Example 109, 2-(2-((((2R,5R)-1-(2-(6-(4-Fluorobenzyl)-3,3-dimethyl-2,3-dihydro-1H-pyrrolo[3,2-b]pyridin-1-yl)-2-oxoethyl)-5-methylpiperazin-2-yl)methyl)(methyl)amino)ethoxy)-N-(4-((4-((3-(methylsulfonyl)benzyl)amino)-5-(trifluoromethyl)pyrimidin-2-yl)amino)phenyl) acetamide]
inhibition at 0.03 µM [1]: ≥ 75%

Other lines, results leading:

inhibition at 0.03 µM [1]: ≥ 75%
FAK protein degradation rate [2]: ≥ 75%
Compound: C[C@@H]1CN(CC(=O)N2CC(C)(C)c3ncc(Cc4ccc(F)cc4)cc32)[C@@H](CN(C)CCOCCOCCOCC(=O)Nc2ccc(Nc3ncc(C(F)(F)F)c(NCc4cccc(S(C)(=O)=O)c4)n3)cc2)CN1 [Example 111, 1-((2R,5R)-1-(2-(6-(4-Fluorobenzyl)-3,3-dimethyl-2,3-dihydro-1H-pyrrolo[3,2-b]pyridin-1-yl)-2-oxoethyl)-5-methylpiperazin-2-yl)-2-methyl-N-(4-((4-((3-(methylsulfonyl)benzyl)amino)-5-(trifluoromethyl)pyrimidin-2-yl)amino)phenyl)-5,8,11-trioxa-2-azatridecan-13-amide]

inhibition at 0.03 µM [1]: 50 to 75%
Compound: COC[C@H]1CN[C@H](C)CN1CC(=O)N1CC(C)(C)c2nc(CN3CCN(CCOCCOCC(=O)Nc4ccc(Nc5ncc(C(F)(F)F)c(NCc6cccc(S(C)(=O)=O)c6)n5)cc4)CC3)c(Cc3ccc(F)cc3)cc21 [Example 116, 2-(2-(2-(4-((6-(4-Fluorobenzyl)-1-(2-((2R,5R)-2-(methoxymethyl)-5-methylpiperazin-1-yl)acetyl)-3,3-dimethyl-2,3-dihydro-1H-pyrrolo[3,2-b]pyridin-5-yl)methyl)piperazin-1-yl)ethoxy)ethoxy)-N-(4-((4-((3-(methylsulfonyl)benzyl)amino)-5-(trifluoromethyl)pyrimidin-2-yl)amino)phenyl)acetamide]

inhibition at 0.03 µM [1]: ≥ 75%
FAK protein degradation rate [2]: ≥ 75%
Compound: COC[C@H]1CN[C@H](C)CN1CC(=O)N1CC(C)(C)c2nc(CN3CCN(CCOCC(=O)Nc4ccc(Nc5ncc(C(F)(F)F)c(NCc6cccc(S(C)(=O)=O)c6)n5)cc4)CC3)c(Cc3ccc(F)cc3)cc21 [Example 115, 2-(2-(4-((6-(4-Fluorobenzyl)-1-(2-((2R,5R)-2-(methoxymethyl)-5-methylpiperazin-1-yl)acetyl)-3,3-dimethyl-2,3-dihydro-1H-pyrrolo[3,2-b]pyridin-5-yl)methyl)piperazin-1-yl)ethoxy)-N-(4-((4-((3-(methylsulfonyl)benzyl)amino)-5-(trifluoromethyl)pyrimidin-2-yl)amino)phenyl)acetamide]
